The values that follow come from ChEMBL document CHEMBL1145424, “Novel boron-containing, nonclassical antifolates: synthesis and preliminary biological and structural evaluation” (J Med Chem, 2007).

One test concerns PC-3. The experiment in a line: Growth inhibition of human PC3 cells after 72 hrs. In kind it is functional, cell-based. As to conditions: PC-3, 72 h.
Another test deals with SNB-7. The test can be described thus: Growth inhibition of human SNB7 cells after 72 hrs. As to conditions: SNB-7, 72 h. In kind it is functional, cell-based.
In a further test the test system is LOX IMVI. The test can be described thus: cells. As to conditions: Homo sapiens, 72 h.
Another test has as its system ZR-75-1. The experiment in a line: Growth inhibition of human ZR-75-1 cells after 72 hrs. The class given is functional, cell-based. As to conditions: ZR-75-1, 72 h.
A further test relates to DLD-1. The experiment in a line: Growth inhibition of human DLD1 cells after 72 hrs. In kind it is functional, cell-based. As to conditions: DLD-1, 72 h.
The subject of a further test is NCI-H23. The experiment in a line: cells. As to conditions: Homo sapiens, NCI-H23, 72 h.
The test system of another test is CAKI-1. The test can be described thus: Growth inhibition of human CAKI1 cells after 72 hrs. As to conditions: CAKI-1, 72 h. The class given is functional, cell-based.

≈ marks a conversion by molar mass, not a printed value.

Description for LOX IMVI: Growth inhibition of human LOX IMVI cells after 72 hrs
Description for NCI-H23: Growth inhibition of human NCI-H23 cells after 72 hrs

Consider `CN(Cc1cnc2nc(N)nc(N)c2n1)c1ccc(C(=O)N[C@@H](CCC(=O)O)C(=O)O)cc1` [METHOTREXATE], for which the IC50 was 0.027 µg/mL (≈ 0.0594 µM) in the test on PC-3; over 60 µg/mL in the test with SNB-7; 0.057 µg/mL (≈ 0.125 µM) with LOX IMVI; over 60 µg/mL with ZR-75-1; over 60 µg/mL in the test on DLD-1; 0.29 µg/mL (≈ 0.638 µM) in the test on NCI-H23. Moreover, in the test with CAKI-1, the IC50 was over 60 µg/mL.
